The molecules below were run against SARS-CoV 3CLpro (Severe acute respiratory syndrome coronavirus, UniProt P0C6U8).
Format: biochemical

SMILES	3CLpro activity in words	loss in inhibition/activity
COc1ncc(-c2ccc(N(Cc3ccsc3)C(=O)Cn3nnc4ccccc43)cc2)cn1 [17e]	micromolar activity	–
O=C(Cn1nnc2ccccc21)N(Cc1ccsc1)c1ccc(NCc2ccccc2)cc1 [16k]	potency comparable to probe ML300	–
CC(C)COC(=O)Nc1ccc(N(C(=O)Cn2nnc3ccccc32)C(C(=O)NC(C)(C)C)c2ccsc2)cc1 (centres unmarked) [13l]	weak or inactive	–
CNc1ccc(N(Cc2ccsc2)C(=O)Cn2nnc3ccccc32)cc1 [16j]	potency comparable to probe ML300	–
CC(C)(C)NC(=O)C(c1ccsc1)N(C(=O)Cn1nnc2ccccc21)c1ccc(NS(C)(=O)=O)cc1 (centres unmarked) [13b]	–	three-fold
CC(C)(C)NC(=O)C(c1ccsc1)N(C(=O)Cn1nnc2ccccc21)c1ccc(NC(=O)C2CCCCC2)cc1 (centres unmarked) [13h]	loss of inhibition	–
CC(C)(C)NC(=O)C(c1ccsc1)N(C(=O)Cn1nnc2ccccc21)c1ccc(NC(=O)C2CC2)cc1 (centres unmarked) [13f]	loss of inhibition	–
CC(=O)Nc1ccc(N(C(=O)Cn2nnc3ccccc32)C(C(=O)NC(C)(C)C)c2ccsc2)cc1 (centres unmarked) [13a]	moderate micromolar activity	–
CC(C)(C)NC(=O)C(c1ccsc1)N(C(=O)Cn1nnc2ccccc21)c1ccc(NC(=O)C(C)(C)C)cc1 (centres unmarked) [13e]	–	three-fold
O=C(Nc1ccc(N(Cc2ccsc2)C(=O)Cn2nnc3ccccc32)cc1)C1CCCCC1 [16g]	weak inhibitor	–
O=C(Nc1ccc(N(Cc2ccsc2)C(=O)Cn2nnc3ccccc32)cc1)c1ccccc1 [16h]	lack of activity	–
